Laboratory results taken from patent US20030175678A1, “Methods for identifying genes regulating desired cell phenotypes” (priority 2001, published 2003).

Experiments:
Type in all cases: cell-based
[1] = tested on: C. fascicularis suspension culture; assay: Differential induction of EGCG in Crassula fascicularis suspension culture (HPLC); settings: B49 medium, treated on day 7 following subculture
Method: Differential induction of catechins in the C. fascicularis suspension culture was performed in 500 mL conical flasks containing 190 mL of either growth medium B105 (modified Gamborg's B5 medium containing 2,4-D (1 mg/L), kinetin (0.1 mg/L), coconut water (100 mL/L), glutamine (10 mM), and 3% sucrose) or a secondary metabolite production medium B49 (Gamborg's B5, 5% sucrose, no hormones), inoculated with 70 mL of 14 day old suspension culture. Cultures were grown for 14 days before harvest and processing. Further cultures grown on production medium B49 were treated using one of each of the following protocols:
(4) A 40 mL aliquot of a day 0 suspension growing on B105 medium was transferred to a 100 mL flask. On day 3, a sterile solution of 5-azacytidine (5-AC) in water was added for a final concentration of 3×10^−5 M, and the resultant mixture was incubated for 11 days. At this point the 40 mL 5-AC-treated culture was subcultured twice before inoculating 190 mL B49 production medium in a 500 mL flask with 70 mL of day 14 suspension. The culture was then treated further according to protocol (2). […]
Lyophilized biomass from 100 mL plant cell culture was extracted three times with 10 mL of boiling aqueous 0.2 M NaH2PO4 solution (total 30 mL). The combined, cooled, extracts were extracted with EtOAc (2×30 mL). The combined EtOAc extracts were then dried under a stream of nitrogen. The samples were dissolved in 50% aqueous acetonitrile at a concentration of 1.0 mg/mL; a 0.1 mL aliquot was transferred into a 0.25 mL glass insert to a 2 mL HPLC vial. The extraction procedure is scalable according to the initial volume of the plant-cell culture used to generate the biomass.
HPLC analyses of compounds in plant cell culture extracts were performed in two systems. System 1 (S1) utilized a Rainin Dynamax SD-200 pumping system, a Varian Dynamax PDA-2 diode array detector, with a Waters XTerra RP 18 (5 μm, 3.0×150 mm) column. The mobile phase was composed from 0.1% acetic acid in H2O (solvent A) and 0.1% acetic acid in acetonitrile (solvent B), at a flow rate of 0.75 mL/min: after maintaining initial conditions (A:B, 95:5) for one minute post-injection, gradient elution was accomplished in a linear fashion over 30 min (to A:B, 40:60). A total of 10 μL of each sample was injected onto the column and eluates were analyzed at a wavelength of 275 nm. System 2 (S2) utilized API-electrospray-LC-MS: a Hewlett Packard series HP1100 with a Waters Xterra RP18 (3.5 μm, 2.1×100 mm) column was used as the inlet for a Micromass Platform-LC, in the positive-ion mode. […] Compounds of interest were detected at 254 nm and as single-charged species via selected-ion monitoring in the mass spectrometer. […]

[2] = tested on: C. barkleyi suspension culture; assay: Differential induction of catechin accumulation in Crassula barkleyi suspension culture; settings: B49 medium, treated seven days after inoculation, sampled for 17 days
Method: Differential induction of catechin derivatives in the C. barkleyi suspension culture was performed in 250 mL conical flasks containing 100 mL of a secondary metabolite production medium B49 (Gamborg's B5, with 5% sucrose, and no hormones), inoculated with 16 mL of 14 day old suspension culture. The cultures were incubated under low light conditions (approximately 30 lux) at 25° C. for seven days after inoculation. Cultures were then treated using one of each of the following protocols (untreated cultures were also maintained as controls):
(2) Autoclaved aqueous 2,4-D (1 mg/L final concentration) was added;
(4) Filter-sterilized aqueous DL-phenylalanine (200 mg/L) was added;
(6) Filter-sterilized aqueous zeatin (10 μM) was added;
(7) Filter-sterilized aqueous 1-aminocyclopropane-1-carboxylic acid (10 mg/L final concentration) was added;
(8) Filter-sterilized 24-epibrassinolide (1 mg/L final concentration) was added;
(9) Incubation at a temperature of 16° C.; or (10) High light regime (approximately 160 lux).
Ten milliliter culture samples were taken at regular intervals for 17 days following the day of subculture to B49 medium. All culture samples were centrifuged for five minutes at 4000 rpm, and the cell residue was freeze-dried. Extraction, sample preparation, and HPLC analysis were performed as described in Example 1.

[3] = tested on: C. dejecta suspension culture; assay: Differential induction of catechin accumulation in Crassula dejecta suspension culture; settings: cultures grown on B105, added at day 7
Method: Differential induction of catechin derivatives in the C. dejecta suspension culture was performed in 250 mL conical flasks containing 100 mL of B105 growth medium or 100 mL of a secondary metabolite production medium B49 (Gamborg's B5, with 5% sucrose, and no hormones), inoculated with 40 mL of 21 day old suspension culture. The cultures were incubated under low light conditions (approximately 30 lux) at 25° C. Cultures were treated using one of each of the following protocols:
(1) B105 growth medium (no additions) used as is;
(3) Filter-sterilized aqueous zeatin (10 μM) was added at day 7 to a culture grown on B105 medium;
(4) B49 production medium (no additions) used as is;
(6) Filter-sterilized clofibrate (0.5 mM final concentration) was added at day 7 to a culture grown on B49 medium. Ten milliliters of culture samples were taken at regular intervals for 17 days following the day of subculture to B105 or B49 medium. All culture samples were centrifuged for five minutes at 4000 rpm, and the cell residue was freeze-dried. Extraction, sample preparation, and HPLC analysis were performed as described in Example 1.

In the case of `O=C(O)c1cc(O)c(O)c(O)c1` [gallic acid], the “EGCG (mg/gdwt) two days after treatment” value [1] is reported as 82 mg/gdwt.
`C/C(=C\CNc1ncnc2[nH]cnc12)CO` [zeatin] was tested, and the “catechin biosynthesis and EGCG accumulation” value [2] was “induced catechin biosynthesis and EGCG accumulation” and the “induction of catechin, gallocatechin, and EGCG” value [3] was “induced catechin, gallocatechin, and EGCG”.
With `O.O.O.O.O.O.O.O=S(=O)([O-])[O-].[Fe+2]` [FeSO4.7H2O] the “EGCG (mg/gdwt) two days after treatment” value [1] was 90 mg/gdwt.
For `CC(C)[C@@H](C)[C@@H](O)[C@H](O)[C@@H](C)[C@H]1CC[C@H]2[C@@H]3COC(=O)[C@H]4C[C@H](O)[C@H](O)C[C@]4(C)[C@H]3CC[C@]12C` [24-epibrassinolide], the “catechin biosynthesis and EGCG accumulation” value [2] was “induced catechin biosynthesis and EGCG accumulation”.
With `O=C(O)COc1ccc(Cl)cc1Cl` [2,4-D, 2,4-dichlorophenoxyacetic acid] the “catechin biosynthesis and EGCG accumulation” value [2] was “suppressed catechin biosynthesis”.
`CCOC(=O)C(C)(C)Oc1ccc(Cl)cc1` [Clofibrate] was tested, and the “EGCG (mg/gdwt) two days after treatment” value [1] was 89 mg/gdwt.
